The values that follow come from patent US11472788B2, “Benzoimidazoles as selective inhibitors of indoleamine 2,3-dioxygenases” (BEIGENE, LTD., priority 2017, dated 2022).

This test has as its target cellular IDO1 in HeLa cells (Homo sapiens (Human), UniProt P14902). Kind of test: HeLa Cell-Based IDO1 Kyn (Kynurenine) Production Assay. The following applies: IFN-γ induced IDO1, 48 hours incubation, Kyn absorbance at 480 nm. As to the method: HeLa Cell-Based IDO1 Kyn (Kynurenine) Production Assay:
The inhibitory activity of IDO1 inhibitors is determined by using a colorimetric reaction to measure Kyn generated from L-Trp (L-Tryptophon) oxidation by cellular IDO1 in HeLa cells after induction of IDO1 expression by IFN-γ.
Hela cells were obtained from the American Type Culture Collection and recovered in 10% FBS-containing phenol red-free DMEM medium. Cells were plated onto a 96-well plate (100 μl/well) at 8000 cells per well and kept at 37° C. in a humidified incubator supplied with 5% CO2. 4 hours later, Human recombinant IFN-γ (8901SC, CST) was added to cells (final concentration 100 ng/mL) to stimulate endogenous IDOL. Compounds at different concentrations diluted in dimethylsulfoxide (DMSO) were added simultaneously with IFN-γ and 0.4 mM L-Trp. Cells were kept at 37° C. in a humidified incubator supplied with 5% CO2. After 48 hours of incubation, 100 μl supernatant from each well was removed to a new plate. The protein in the medium was precipitated with the addition of 8 μl 6N trichloroacetic acid. The plate was incubated at 60° C. for 30 minutes and then centrifugation at 2500 rpm for 10 minutes to remove sediments. 80 μl supernatants were carefully removed to a new clean plate and added with an equal volume of 2% 4-(Dimethylamino)benzaldehyde (D2004, sigma) dissolved in glacial acetic acid. The absorbance at 480 nm wavelength derived from Kyn was measured using a PHERAstar FS plate reader (BMG LABTECH). The IC5C for each compound was derived from fitting the dose-response data to the four-parameter logistic model by using XLfit software (IDBS).

The EC50 is the concentration that produces a half-maximal response. Low readings indicate greater potency, high ones weaker potency.

Chain of cellular IDO1 in HeLa cells (P14902 whole entry): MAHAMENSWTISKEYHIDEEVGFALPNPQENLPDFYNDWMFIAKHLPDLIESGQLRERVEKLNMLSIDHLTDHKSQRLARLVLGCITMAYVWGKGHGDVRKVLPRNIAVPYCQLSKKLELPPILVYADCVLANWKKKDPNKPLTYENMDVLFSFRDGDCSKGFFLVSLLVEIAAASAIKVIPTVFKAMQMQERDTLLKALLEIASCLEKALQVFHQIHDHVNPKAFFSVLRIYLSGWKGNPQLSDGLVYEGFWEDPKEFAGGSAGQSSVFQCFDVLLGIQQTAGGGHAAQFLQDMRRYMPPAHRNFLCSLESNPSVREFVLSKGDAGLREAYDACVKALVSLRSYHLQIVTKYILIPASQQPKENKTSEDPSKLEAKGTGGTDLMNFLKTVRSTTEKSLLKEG

Regarding `C[C@@H](c1nc2ccc(Cl)cc2[nH]1)C1CCC(c2cnc3ccccc3c2)CC1` (stereo partly drawn) [Example B25b, (R)-3-(4-(1-(6-chloro-1H-benzo[d]imidazol-2-yl)ethyl)cyclohexyl)quinoline], the EC50 was 3.1 nM.

Compound `C[C@@H](c1nc2c(Cl)c(F)c(F)cc2[nH]1)[C@H]1CC[C@@H](c2ccnc3ccc(F)cc32)CC1` [Example B125, 4-((1S,4s)-4-((R)-1-(4-chloro-5,6-difluoro-1H-benzo[d]imidazol-2-yl)ethyl)cyclohexyl)-6-fluoroquinoline] displayed an EC50 of 8.79 nM.

`CCOC(=O)c1cc2nc([C@H](C)[C@H]3CC[C@@H](c4ccnc5ccc(F)cc54)CC3)[nH]c2cc1C` [Example B201, ethyl 2-((R)-1-((1s,4S)-4-(6-fluoroquinolin-4-yl)cyclohexyl)ethyl)-6-methyl-1H-benzo[d]imidazole-5-carboxylate]: the midpoint of the response, the EC50, lay at 1.6 nM. Compared with the last compound, the EC50 is about 5.5-fold lower.

With `C[C@@H](c1nc2ccc(S(C)(=O)=O)cc2[nH]1)[C@H]1CC[C@@H](c2ccnc3ccc(F)cc32)CC1` [Example B138, 6-fluoro-4-((1S,4s)-4-((R)-1-(6-(methylsulfonyl)-1H-benzo[d]imidazol-2-yl)ethyl)cyclohexyl)quinoline], the EC50 amounted to 18.8 nM.

As for `CC(c1nc2cc3c(cc2[nH]1)CCC(=O)N3)[C@H]1CC[C@@H](c2ccnc3ccc(F)cc32)CC1` (stereo partly shown) [Example B159, 2-(1-((1s,4s)-4-(6-fluoroquinolin-4-yl)cyclohexyl)ethyl)-1,5,7,8-tetrahydro-6H-imidazo[4,5-g]quinolin-6-one], the response was half-maximal at 67.7 nM (EC50).

`C[C@@H](c1nc2cc(F)c(F)c(Cl)c2[nH]1)[C@H]1CC[C@@H](c2ccnc3ccc(F)cc32)CC1` [Example B189, 4-((1R,4s)-4-((S)-1-(7-chloro-5,6-difluoro-1H-benzo[d]imidazol-2-yl)ethyl)cyclohexyl)-6-fluoroquinoline] registered an EC50 of 45.9 nM.

For `Cc1c(Br)ccc2[nH]c(C[C@H]3CC[C@@H](c4ccnc5ccc(F)cc54)CC3)nc12` [Example A11b, 4-((1s,4s)-4-((5-bromo-4-methyl-1H-benzo[d]imidazol-2-yl)methyl)cyclohexyl)-6-fluoroquinoline], the response was half-maximal at 14 nM (EC50).

Take `Fc1ccc(C2CCC(Cc3nc4cc(C5CC5)ccc4[nH]3)CC2)c2cccnc12` (stereo not shown) [Example A25, 5-(4-((5-cyclopropyl-1H-benzo[d]imidazol-2-yl)methyl)cyclohexyl)-8-fluoroquinoline]: the EC50 was 268 nM.

`C[C@@H](c1nc2c(ccc3ccccc32)[nH]1)[C@H]1CC[C@H](c2ccnc3ccc(F)cc32)CC1` [Example B212, 2-((R)-1-((1r,4R)-4-(6-fluoroquinolin-4-yl)cyclohexyl)ethyl)-3H-naphtho[1,2-d]imidazole]: a half-maximal response (EC50) required 27.9 nM. This EC50 is about 9.6-fold lower than that of the compound before.

The compound `Fc1ccc2nccc(C3CCC(c4nc5cc(Br)ccc5[nH]4)CC3)c2c1` (stereo not shown) [Example C4, 4-(4-(5-bromo-1H-benzo[d]imidazol-2-yl)cyclohexyl)-6-fluoroquinoline] returned an EC50 of 9.1 nM.

`Fc1ccc2nccc([C@H]3CC[C@H](Cc4nc5cc(C(F)(F)F)ccc5[nH]4)CC3)c2c1` [Example A3a, 6-fluoro-4-((1s,4s)-4-((5-(trifluoromethyl)-1H-benzo[d]imidazol-2-yl)methyl)cyclohexyl)quinoline]: a half-maximal effect (EC50) was put at 72 nM.

Compound `COC(=O)c1ccc2[nH]c([C@H](C)[C@H]3CC[C@@H](c4ccnc5ccc(F)cc54)CC3)nc2c1` [Example B3b, methyl 2-((R)-1-((1s,4S)-4-(6-fluoroquinolin-4-yl)cyclohexyl)ethyl)-1H-benzo[d]imidazole-5-carboxylate] returned an EC50 of 81 nM.

The compound `COC(=O)c1ccc2[nH]c([C@H]3CC[C@H](c4ccnc5ccc(F)cc54)CC3)nc2c1` [Example C8a, methyl 2-((1r,4r)-4-(6-fluoroquinolin-4-yl)cyclohexyl)-1H-benzo[d]imidazole-5-carboxylate] had an EC50 of 1200 nM.

`Fc1ccc2nccc(C3CCN(Cc4nc5cc(Cl)ccc5[nH]4)CC3)c2c1` [Example A39, 4-(1-((5-chloro-1H-benzo[d]imidazol-2-yl)methyl)piperidin-4-yl)-6-fluoroquinoline] returned an EC50 of 150 nM. This EC50 lies about 8-fold lower than the previous one.

On to `CC(c1nc2cc3ccccc3cc2[nH]1)[C@H]1CC[C@@H](c2ccnc3ccc(F)cc32)CC1` (stereo partly shown) [Example B166, 2-(1-((1s,4s)-4-(6-fluoroquinolin-4-yl)cyclohexyl)ethyl)-1H-naphtho[2,3-d]imidazole], for which the EC50 amounted to 251 nM.

The compound `CC(c1nc2cc(C(=O)NC3CC3)c(F)c(F)c2[nH]1)[C@H]1CC[C@@H](c2ccnc3ccc(F)cc32)CC1` (stereo partly shown) [B192] came in with an EC50 of 8.97 nM.

Compound `C[C@@H](c1nc2c(F)c(F)cc(Cl)c2[nH]1)[C@H]1CC[C@@H](c2ccnc3ccc(F)cc32)CC1` [Example B124, 4-((1S,4s)-4-((R)-1-(7-chloro-4,5-difluoro-1H-benzo[d]imidazol-2-yl)ethyl)cyclohexyl)-6-fluoroquinoline] came in with an EC50 of 16.4 nM.

In the case of `CC(c1nc2cc(-c3ccccc3)c(F)cc2[nH]1)C1CCC(c2ccnc3ccc(F)cc23)CC1` (stereo not shown) [B181], a half-maximal response (EC50) required 2.7 nM.

In turn, `Fc1ccc2nccc(C3CCC(Cc4nc5cc(N6CCCCC6)c(Br)cc5[nH]4)CC3)c2c1` (stereo not shown) [Example A16, 4-(4-((6-bromo-5-(piperidin-1-yl)-1H-benzo[d]imidazol-2-yl)methyl)cyclohexyl)-6-fluoroquinoline] came in with an EC50 of 251 nM.

As for `Fc1ccc2nccc([C@H]3CC[C@@H](c4nc5cc(Cl)ccc5[nH]4)CC3)c2c1` [Example C2b, 4-((1s,4s)-4-(5-chloro-1H-benzo[d]imidazol-2-yl)cyclohexyl)-6-fluoroquinoline], the midpoint of the response, the EC50, lay at 11 nM.

Turning to `C[C@@H](c1nc2cc(C(F)(F)F)ccc2[nH]1)[C@H]1CC[C@@H](c2ccnc3ccc(F)cc32)CC1` [Example B4, 6-fluoro-4-((1S,4s)-4-((R)-1-(5-(trifluoromethyl)-1H-benzo[d]imidazol-2-yl)ethyl)cyclohexyl)quinoline], the EC50 turned out to be 1.4 nM.

`CC(c1nc2cc3c(=O)[nH]cnc3cc2[nH]1)[C@H]1CC[C@@H](c2ccnc3ccc(F)cc32)CC1` (stereo partly shown) [Example B151, 2-(1-((1s,4s)-4-(6-fluoroquinolin-4-yl)cyclohexyl)ethyl)-3,7-dihydro-8H-imidazo[4,5-g]quinazolin-8-one] showed an EC50 of 82.3 nM. This EC50 lies about 59-fold higher than the previous one.

Compound `C[C@H](c1nc2cc(F)c(F)cc2[nH]1)[C@H]1CC[C@@H](c2ccnc3ccc(F)cc32)CC1` [Example B1b, 4-((1R,4s)-4-((S)-1-(5,6-difluoro-1H-benzo[d]imidazol-2-yl)ethyl)cyclohexyl)-6-fluoroquinoline] yielded an EC50 of 59 nM.

`COC(=O)c1c(F)ccc2[nH]c([C@H](C)[C@H]3CC[C@@H](c4ccnc5ccc(F)cc54)CC3)nc12` [Example B199, methyl 5-fluoro-2-((R)-1-((1s,4S)-4-(6-fluoroquinolin-4-yl)cyclohexyl)ethyl)-1H-benzo[d]imidazole-4-carboxylate] gave an EC50 of 21.9 nM.

With `Fc1ccc2nccc([C@H]3CC[C@@H](c4nc5cc(F)c(F)cc5[nH]4)CC3)c2c1` [Example C7b, 4-((1s,4s)-4-(5,6-difluoro-H-benzo[d]imidazol-2-yl)cyclohexyl)-6-fluoroquinoline], the EC50 was 70 nM.

Consider `Cc1cc(C(=O)NC2CCC2)cc2[nH]c(C(C)C3CCC(c4ccnc5ccc(F)cc45)CC3)nc12` (stereo not shown) [Example B206, N-cyclobutyl-2-(1-(4-(6-fluoroquinolin-4-yl)cyclohexyl)ethyl)-4-methyl-1H-benzo[d]imidazole-6-carboxamide], for which the EC50 turned out to be 27.1 nM.

Turning to `CC(c1nc2ccc(C(=O)O)cc2[nH]1)[C@H]1CC[C@@H](c2ccnc3ccc(F)cc32)CC1` (stereo partly shown) [Example B163, 2-(1-((1s,4s)-4-(6-fluoroquinolin-4-yl)cyclohexyl)ethyl)-1H-benzo[d]imidazole-6-carboxylic acid], the EC50 was 567 nM.

As to `COC1CCC(NC(=O)c2ccc3[nH]c(C(C)[C@H]4CC[C@@H](c5ccnc6ccc(F)cc65)CC4)nc3c2)CC1` (stereo partly shown) [Example B185, 2-(1-((1s,4s)-4-(6-fluoroquinolin-4-yl)cyclohexyl)ethyl)-N-(4-methoxycyclohexyl)-1H-benzo[d]imidazole-5-carboxamide], a half-maximal effect (EC50) was put at 122 nM.

On to `C[C@@H](c1nc2ccc(NS(C)(=O)=O)cc2[nH]1)[C@H]1CC[C@@H](c2ccnc3ccc(F)cc32)CC1` [Example B136, N-(2-((R)-1-((1s,4S)-4-(6-fluoroquinolin-4-yl)cyclohexyl)ethyl)-1H-benzo[d]imidazol-6-yl)methanesulfonamide], for which the EC50 worked out at 296 nM.

Consider `COC(=O)c1cc2nc(C(C)[C@H]3CC[C@@H](c4ccnc5ccc(F)cc54)CC3)[nH]c2c(F)c1F` (stereo partly shown) [B213], for which the EC50 is 1.8 nM.

With `Cc1noc(-c2ccc3[nH]c(C(C)[C@H]4CC[C@@H](c5ccnc6ccc(F)cc65)CC4)nc3c2)n1` (stereo partly shown) [Example B217], a half-maximal effect (EC50) was put at 1.2 nM.
